Patent US20260287577A1, “APPLICATIONS OF HEPATOCYTE CO-CULTURE SYSTEM” (LifeNet Health, priority 2023, published 2026)
Read-outs that look alike come from different tables or passages of the source.

Assays:
Assay type in all cases: cell-based, human
[1] = tested on: genes known to have a role in fibrogenic responses (e.g., LGALS3, LOX, MMP1); experiment: Fibrogenic response gene expression overall, Example 9; conditions: DEX / no DEX, with / without KCs
Procedure: (§1) Methods: The hepatic tri-culture system, including adult primary human hepatocytes (PHHs), endothelial cells and stromal cells, was cultured with and without primary KCs, at a ratio of 1 KC:4 PHH or 1 KC:2 PHH, in a glucocorticoid-containing or -free media. […] MTX or TGF-β1 or […] (LPS) cause hepatic injury. The injury leads to lipid accumulation, lipotoxicity and cytokines are produced. These activate the KCs and the liver sinusoidal endothelial cells (LSEC). Then stromal activation and gene expressions occur, leading to liver fibrosis.
(§2) Following exposure to methotrexate (MTX; 0.1 and 1 μM; Sigma-Aldrich, St. Louis, MO) or TGF-β1 (0.1 and 10 ng/ml; Miltenyi Biotec, Gaithersburg, MD) or vehicle (DMSO; 0.1% v/v), the expression of various genes known to have a role in fibrogenic responses (e.g., LGALS3, LOX, MMP1) was determined. MTX and TGF-β1 are known fibrogenic compounds Cell health was assessed by urea production and LDH release in the medium.
(§3) The experiments were done in a 96-well format according to the details shown below. […] The hepatocytes were from an individual adult lot. The Kupffer cells (KCs) were from an individual adult lot. The seeding density of the Kupffer cells to the hepatocytes was selected to mimic healthy or inflammatory physiological levels (1:4 or 1:2 ratio). The seeding of the KCs occurred on Day 1 of the culture (meaning 24 hours post-hepatocyte plating).
(§4) All hepatocyte plating was performed using TCPM with Dex (1 μM), as above. Four hours after hepatocyte plating, TCCM was added with and without Dex (half of the cultures with Dex, half without.) The media used were those as described above. The medium exchange process was to do 50% media changes following KC plating up until the compound addition.
Thawing and plating of the hepatocytes was done according to methods as known in the art. The next day (24 hours) after plating the cells, the KCs were added in TCCM with or without Dex (0.1 μM) at a 1:4 or 1:2 ratio to hepatocytes. […]
The cell harvest and analytical endpoints were done as follows. […] The treatment samples were analyzed in triplicate. […]

[2] = tested on: LGALS3 (Galectin3); experiment: cells; conditions: for fold induction at 0.1 µM / fold induction at 1 µM: Homo sapiens
Procedure: as §1, §2, §3, §4
(§5) Thawing and plating of the hepatocytes was done according to methods as known in the art. The next day (24 hours) after plating the cells, the KCs were added in TCCM with or without Dex (0.1 μM) at a 1:4 or 1:2 ratio to hepatocytes. The next day and subsequent days, 50% volume of medium was changed each day. Starting at day 5 of culture, the compounds tested were added in the 50% medium volume and allowed to go, unchanged, through Day 8 of culture (72 hr treatment); or to 120 hr treatment times. The treatment compounds were methotrexate (0.1 and 1.0 μM) and TGF-β1 (0.1 and 10 ng/ml).
(§6) The cell harvest and analytical endpoints were done as follows. Phase contrast images were captured each day. The media samples were collected for lactate dehydrogenase (LDH) assay at the end of each treatment period (i.e., 72 or 120 hours of treatment with each compound). The results were used to assess cell health. Cell lysates were harvested for gene expression analysis. 2 wells were combined per sample. The treatment samples were analyzed in triplicate. The following genes that have a role in fibrogenic response were observed. LGALS3 (Galectin3); LOX (lysyl oxidase), MMP1 (matrix Metalloproteinase 1); Housekeeping gene (β-actin). The images in FIGS. 44 and 45 are at 200×.

[3] = tested on: MMP1 (matrix Metalloproteinase 1); experiment: cells; conditions: Homo sapiens
Procedure: as §1, §2, §3, §4, §5, §6

[4] = tested on: LOX (lysyl oxidase); experiment: cells; conditions: Homo sapiens
Procedure: as §1, §2, §3, §4, §5, §6

In the case of `CN(Cc1cnc2nc(N)nc(N)c2n1)c1ccc(C(=O)N[C@@H](CCC(=O)O)C(=O)O)cc1` [MTX, methotrexate], the “culture conditions in which effects on fibrogenic genes were observed” value [1] is reported as “observed on the no DEX treated groups with KCs”, the fold induction at 0.1 µM ([2]; 72 h, read-out: LGALS3 fold induction Mean, 72 hours, with Dex, No KC, MTX 0.1 μM) is reported as 1 and the fold induction at 1 µM ([2]; 72 h, read-out: LGALS3 fold induction Mean, 72 hours, with Dex, No KC, MTX 1 μM) is reported as 1.2. It also gave a fold induction at 0.1 µM ([2]; 72 h, read-out: LGALS3 fold induction Mean, 72 hours, with Dex, with KCs, MTX 0.1 μM) of 1, a fold induction at 1 µM ([2]; 72 h, read-out: LGALS3 fold induction Mean, 72 hours, with Dex, with KCs, MTX 1 μM) of 1.1 and a fold induction at 0.1 µM ([2]; 72 h, read-out: LGALS3 fold induction Mean, 72 hours, without Dex, No KC, MTX 0.1 μM) of 1.2. It also gave a fold induction at 1 µM ([2]; 72 h, read-out: LGALS3 fold induction Mean, 72 hours, without Dex, No KC, MTX 1 μM) of 1.2, a fold induction at 0.1 µM ([2]; 72 h, read-out: LGALS3 fold induction Mean, 72 hours, without Dex, with KCs, MTX 0.1 μM) of 1.5 and a fold induction at 1 µM ([2]; 72 h, read-out: LGALS3 fold induction Mean, 72 hours, without Dex, with KCs, MTX 1 μM) of 1.7. For the same compound, the fold induction at 0.1 µM ([2]; 120 h, read-out: LGALS3 fold induction Mean, 120 hours, with Dex, No KC, MTX 0.1 μM) was 1.2, the fold induction at 1 µM ([2]; 120 h, read-out: LGALS3 fold induction Mean, 120 hours, with Dex, No KC, MTX 1 μM) was 1.1 and the fold induction at 0.1 µM ([2]; 120 h, read-out: LGALS3 fold induction Mean, 120 hours, with Dex, with KCs, MTX 0.1 μM) was 0.9. For the same compound, the fold induction at 1 µM ([2]; 120 h, read-out: LGALS3 fold induction Mean, 120 hours, with Dex, with KCs, MTX 1 μM) was 1.1, the fold induction at 0.1 µM ([2]; 120 h, read-out: LGALS3 fold induction Mean, 120 hours, without Dex, No KC, MTX 0.1 μM) was 1.1 and the fold induction at 1 µM ([2]; 120 h, read-out: LGALS3 fold induction Mean, 120 hours, without Dex, No KC, MTX 1 μM) was 0.2. For the same compound, the fold induction at 0.1 µM ([2]; 120 h, read-out: LGALS3 fold induction Mean, 120 hours, without Dex, with KCs, MTX 0.1 μM) was 1.4, the fold induction at 1 µM ([2]; 120 h, read-out: LGALS3 fold induction Mean, 120 hours, without Dex, with KCs, MTX 1 μM) was 1.4 and the LGALS3 gene expression ([2]; MTX at both concentrations, presence of KCs, 120 hr versus 72 hr) was “slight decline”. It also gave a fold induction at 0.1 µM ([3]; 72 h, read-out: MMP1 fold induction Mean, 72 hours, with Dex, No KC, MTX 0.1 μM) of 1.2, a fold induction at 1 µM ([3]; 72 h, read-out: MMP1 fold induction Mean, 72 hours, with Dex, No KC, MTX 1 μM) of 1.2 and a fold induction at 0.1 µM ([3]; 72 h, read-out: MMP1 fold induction Mean, 72 hours, with Dex, with KCs, MTX 0.1 μM) of 1.1. It also gave a fold induction at 1 µM ([3]; 72 h, read-out: MMP1 fold induction Mean, 72 hours, with Dex, with KCs, MTX 1 μM) of 0.9, a fold induction at 0.1 µM ([3]; 72 h, read-out: MMP1 fold induction Mean, 72 hours, without Dex, No KC, MTX 0.1 μM) of 0.9 and a fold induction at 1 µM ([3]; 72 h, read-out: MMP1 fold induction Mean, 72 hours, without Dex, No KC, MTX 1 μM) of 0.7. It also gave a fold induction at 0.1 µM ([3]; 72 h, read-out: MMP1 fold induction Mean, 72 hours, without Dex, with KCs, MTX 0.1 μM) of 1.2, a fold induction at 1 µM ([3]; 72 h, read-out: MMP1 fold induction Mean, 72 hours, without Dex, with KCs, MTX 1 μM) of 1.4 and a fold induction at 1 µM ([3]; 72 h, read-out: MMP1 gene expression, 1 μM MTX, presence of KCs, 72 hr only) of 1.4. For the same compound, the fold induction at 1 µM ([3]; 120 h, read-out: MMP1 fold induction Mean, 120 hours, with Dex, No KC, MTX 1 μM) was 0.7, the fold induction at 0.1 µM ([3]; 120 h, read-out: MMP1 fold induction Mean, 120 hours, with Dex, with KCs, MTX 0.1 μM) was 1 and the fold induction at 1 µM ([3]; 120 h, read-out: MMP1 fold induction Mean, 120 hours, with Dex, with KCs, MTX 1 μM) was 0.6. The fold induction at 0.1 µM ([3]; 120 h, read-out: MMP1 fold induction Mean, 120 hours, without Dex, No KC, MTX 0.1 μM) was 0.7, the fold induction at 1 µM ([3]; 120 h, read-out: MMP1 fold induction Mean, 120 hours, without Dex, No KC, MTX 1 μM) was 0.7 and the fold induction at 0.1 µM ([3]; 120 h, read-out: MMP1 fold induction Mean, 120 hours, without Dex, with KCs, MTX 0.1 μM) was 0.7. The fold induction at 1 µM ([3]; 120 h, read-out: MMP1 fold induction Mean, 120 hours, without Dex, with KCs, MTX 1 μM) was 0.9, the fold induction at 0.1 µM ([4]; 72 h, read-out: LOX fold induction Mean, 72 hours, with Dex, No KC, MTX 0.1 μM) was 1.2 and the fold induction at 1 µM ([4]; 72 h, read-out: LOX fold induction Mean, 72 hours, with Dex, No KC, MTX 1 μM) was 1.1. The fold induction at 0.1 µM ([4]; 72 h, read-out: LOX fold induction Mean, 72 hours, with Dex, with KCs, MTX 0.1 μM) was 1, the fold induction at 1 µM ([4]; 72 h, read-out: LOX fold induction Mean, 72 hours, with Dex, with KCs, MTX 1 μM) was 1 and the fold induction at 0.1 µM ([4]; 72 h, read-out: LOX fold induction Mean, 72 hours, without Dex, No KC, MTX 0.1 μM) was 1.1. It also gave a fold induction at 1 µM ([4]; 72 h, read-out: LOX fold induction Mean, 72 hours, without Dex, No KC, MTX 1 μM) of 1.1, a fold induction at 0.1 µM ([4]; 72 h, read-out: LOX fold induction Mean, 72 hours, without Dex, with KCs, MTX 0.1 μM) of 1.3 and a fold induction at 1 µM ([4]; 72 h, read-out: LOX fold induction Mean, 72 hours, without Dex, with KCs, MTX 1 μM) of 1.5. For the same compound, the fold induction at 1 µM ([4]; 120 h, read-out: LOX fold induction Mean, 120 hours, with Dex, No KC, MTX 1 μM) was 0.8, the fold induction at 0.1 µM ([4]; 120 h, read-out: LOX fold induction Mean, 120 hours, with Dex, with KCs, MTX 0.1 μM) was 1 and the fold induction at 1 µM ([4]; 120 h, read-out: LOX fold induction Mean, 120 hours, with Dex, with KCs, MTX 1 μM) was 1.1. It also gave a fold induction at 0.1 µM ([4]; 120 h, read-out: LOX fold induction Mean, 120 hours, without Dex, No KC, MTX 0.1 μM) of 1, a fold induction at 1 µM ([4]; 120 h, read-out: LOX fold induction Mean, 120 hours, without Dex, No KC, MTX 1 μM) of 1.2 and a fold induction at 0.1 µM ([4]; 120 h, read-out: LOX fold induction Mean, 120 hours, without Dex, with KCs, MTX 0.1 μM) of 1.4. It also gave a fold induction at 1 µM ([4]; 120 h, read-out: LOX fold induction Mean, 120 hours, without Dex, with KCs, MTX 1 μM) of 1.5 and a fold induction at 1 µM ([4]; read-out: LOX gene expression, 1 μM MTX, presence of KCs, 72 hr and 120 hr) of no less than 1.5.
